According to US10092551B2, “Spiro-thiazolones” (Hoffmann-La Roche Inc., priority 2014, dated 2018):

Molecular target: human V1a receptor (Homo sapiens (Human), UniProt P37288)
Assay: human V1a receptor binding studies (3H-Vasopressin, SPA beads)
Settings: membranes of HEK293 cells transiently transfected with human V1a receptor, Ki by Cheng-Prussoff
Outline: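 Membranes from HEK293 cells transiently expressing cloned human V1a receptor, bound on yttrium silicate SPA beads with 4 nM 3H-vasopressin (added stock) and serially diluted compound, 1 h at room temperature. Non-specific binding defined with cold vasopressin; IC50 by non-linear regression, Ki via Cheng-Prusoff.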

Sequence of human V1a receptor (P37288 whole entry): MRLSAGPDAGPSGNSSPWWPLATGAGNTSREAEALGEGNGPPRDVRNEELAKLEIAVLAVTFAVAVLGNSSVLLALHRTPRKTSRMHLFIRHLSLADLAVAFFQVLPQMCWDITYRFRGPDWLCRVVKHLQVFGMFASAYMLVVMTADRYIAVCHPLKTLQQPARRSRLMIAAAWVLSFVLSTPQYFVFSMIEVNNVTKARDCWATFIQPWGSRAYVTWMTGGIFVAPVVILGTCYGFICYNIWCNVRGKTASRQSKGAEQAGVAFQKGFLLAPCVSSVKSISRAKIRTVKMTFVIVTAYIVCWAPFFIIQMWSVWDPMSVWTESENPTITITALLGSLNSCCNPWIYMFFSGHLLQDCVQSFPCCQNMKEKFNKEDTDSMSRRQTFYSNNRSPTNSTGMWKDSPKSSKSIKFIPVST

Compared with CC(C)/C(=C1\SC(N2CCC3(CC2)OCc2ccccc23)=NC1=O)c1ccc(Cl)cc1 [Example 154, (5E)-5-[1-(4-chlorophenyl)-2-methylpropylidene]-2-(1′H,3H-spiro[2-benzofuran-1,4′-piperidin]-1′-yl)-1,3-thiazol-4(5H)-one], O=C1N=C(N2CCC3(CC2)OCc2ccccc23)S/C1=C(\c1ccc(Cl)cc1)C(F)(F)F [Example 18, (5E)-5-[1-(4-chlorophenyl)-2,2,2-trifluoroethylidene]-2-(1′H,3H-spiro[2-benzofuran-1,4′-piperidin]-1′-yl)-1,3-thiazol-4(5H)-one] is higher in “pKi hV1a” value: 7.8 for the first, 9.1 for the second.

First: O=C1N=C(N2CCC3(CC2)OCc2ccccc23)S/C1=C1/CCCc2cc(Cl)ccc21 [Example 11, (5E/Z)-5-(6-chloro-3,4-dihydronaphthalen-1(2H)-ylidene)-2-(1′H,3H-spiro[2-benzofuran-1,4′-piperidin]-1′-yl)-1,3-thiazol-4(5H)-one]
Second: O=C1N=C(N2CCC3(CC2)OCc2ccccc23)S/C1=C1/CCCc2c(Cl)cccc21 [Example 19, (5E/Z)-5-(5-chloro-3,4-dihydronaphthalen-1(2H)-ylidene)-2-(1′H,3H-spiro[2-benzofuran-1,4′-piperidin]-1′-yl)-1,3-thiazol-4(5H)-one]
The “pKi hV1a” value of the first is higher: 8.4 for the first, 7.7 for the second.

Going from CC(C)C(=C1SC(N2CCC3(CC2)OCc2ccccc23)=NC1=O)C(C)C [Example 120, 5-(2,4-dimethylpentan-3-ylidene)-2-(1′H,3H-spiro[2-benzofuran-1,4′-piperidin]-1′-yl)-1,3-thiazol-4(5H)-one] to C/C(=C1\SC(N2CCC3(CC2)OCc2ccccc23)=NC1=O)c1c(C)noc1C [Example 106, (5E)-5-[1-(3,5-dimethyl-1,2-oxazol-4-yl)ethylidene]-2-(1′H,3H-spiro[2-benzofuran-1,4′-piperidin]-1′-yl)-1,3-thiazol-4(5H)-one], the “pKi hV1a” value falls from 8.8 to 7.3.

Going from C/C(=C1/SC(N2CCC3(CC2)OCc2ccccc23)=NC1=O)c1ccccc1 [Example 16, (5E/Z)-5-(1-phenylethylidene)-2-(1′H,3H-spiro[2-benzofuran-1,4′-piperidin]-1′-yl)-1,3-thiazol-4(5H)-one] to C/C(=C1\SC(N2CCC3(CC2)OCc2ccccc23)=NC1=O)c1ccccc1 [Example 152, (5E)-5-(1-phenylethylidene)-2-(1′H,3H-spiro[2-benzofuran-1,4′-piperidin]-1′-yl)-1,3-thiazol-4(5H)-one], the “pKi hV1a” value rises from 8.5 to 9.0.

Compared with C/C(=C1/SC(N2CCC3(CC2)OCc2ccccc23)=NC1=O)c1ccc(Cl)nc1 [Example 49, (5E/Z)-5-[1-(6-chloropyridin-3-yl)ethylidene]-2-(1′H,3H-spiro[2-benzofuran-1,4′-piperidin]-1′-yl)-1,3-thiazol-4(5H)-one], [2H]C([2H])([2H])/C(=C1/SC(N2CCC3(CC2)OCc2ccccc23)=NC1=O)c1ccc(Cl)nc1 [Example 171, (5Z)-5-[1-(6-chloropyridin-3-yl)(^2H3)ethylidene]-2-(1′H,3H-spiro[2-benzofuran-1,4′-piperidin]-1′-yl)-1,3-thiazol-4(5H)-one] is higher in “pKi hV1a” value: 9.1 for the first, 9.3 for the second.

Compared with O=C1N=C(N2CCC3(CC2)OCc2ccccc23)SC1=C(c1ccc[nH]1)c1ccc[nH]1 [Example 122, 5-(di-1H-pyrrol-2-ylmethylidene)-2-(1′H,3H-spiro[2-benzofuran-1,4′-piperidin]-1′-yl)-1,3-thiazol-4(5H)-one], C/C(=C1\SC(N2CCC3(CC2)OCc2ccccc23)=NC1=O)c1ccccc1F [Example 56, (5E)-5-[1-(2-fluorophenyl)ethylidene]-2-(1′H,3H-spiro[2-benzofuran-1,4′-piperidin]-1′-yl)-1,3-thiazol-4(5H)-one] is lower in “pKi hV1a” value: 9.0 for the first, 8.3 for the second.

First: O=C1N=C(N2CCC3(CC2)OCc2ccccc23)SC1=C1CCOCC1 [Example 44, 2-(1′H,3H-spiro[2-benzofuran-1,4′-piperidin]-1′-yl)-5-(tetrahydro-4H-pyran-4-ylidene)-1,3-thiazol-4(5H)-one]
Second: C/C(=C1/SC(N2CCC3(CC2)OCc2ccccc23)=NC1=O)C1CCCC1 [Example 43, (5E/Z)-5-(1-cyclopentylethylidene)-2-(1′H,3H-spiro[2-benzofuran-1,4′-piperidin]-1′-yl)-1,3-thiazol-4(5H)-one]
The “pKi hV1a” value of the first is lower: 8.1 for the first, 8.8 for the second.

Going from C/C(=C1\SC(N2CCC3(CC2)OC(=O)c2ccccc23)=NC1=O)c1ccc(Cl)nc1 [Example 138, 1′-{(5E)-5-[1-(6-chloropyridin-3-yl)ethylidene]-4-oxo-4,5-dihydro-1,3-thiazol-2-yl}-3H-spiro[2-benzofuran-1,4′-piperidin]-3-one] to C/C(=C1/SC(N2CCC3(CC2)OCc2ccccc23)=NC1=O)c1ccnc(Cl)c1 [Example 48, (5E/Z)-5-[1-(2-chloropyridin-4-yl)ethylidene]-2-(1′H,3H-spiro[2-benzofuran-1,4′-piperidin]-1′-yl)-1,3-thiazol-4(5H)-one], the “pKi hV1a” value rises from 8.3 to 8.6.

In the case of C/C(=C1/SC(N2CCC3(CC2)OCc2ccccc23)=NC1=O)c1sc(C)nc1C [Example 112, (5E/Z)-5-[1-(2,4-dimethyl-1,3-thiazol-5-yl)ethylidene]-2-(1′H,3H-spiro[2-benzofuran-1,4′-piperidin]-1′-yl)-1,3-thiazol-4(5H)-one], the “pKi hV1a” value is reported as 8.6.
